# Values quoted from earlier work, collected in patent US7906154B2, “Compositions and methods for the induction and maintenance of quality sleep” (priority 2006, dated 2011).
# Where two headings read alike, the source gives them in different places.
smiles,measurement,setting,value
"COC1=C(OC)C(=O)C(C/C=C(\C)CC/C=C(\C)CC/C=C(\C)CC/C=C(\C)CC/C=C(\C)CC/C=C(\C)CC/C=C(\C)CC/C=C(\C)CC/C=C(\C)CCC=C(C)C)=C(C)C1=O [CoQ10, Coenzyme Q10]",subjects with a decrease in the sound level of their snoring,during non-REM sleep stages I/II,about 40%
same,subjects with a decrease in the sound level of their snoring,during non-REM sleep stages III/IV,about 33%
same,subjects with a decrease in the sound level of their snoring,during the REM stage of sleep,about 44%
